Reference: ChEMBL document CHEMBL1201862, “PubChem BioAssay data set” (2004)
Calls of active or inactive are those of the source.

How the values were obtained:
[1] = biological target: T1, CAAX prenyl protease 2 (Saccharomyces cerevisiae S288c, UniProt Q03530); format: biochemical
T1 sequence (Q03530 whole entry): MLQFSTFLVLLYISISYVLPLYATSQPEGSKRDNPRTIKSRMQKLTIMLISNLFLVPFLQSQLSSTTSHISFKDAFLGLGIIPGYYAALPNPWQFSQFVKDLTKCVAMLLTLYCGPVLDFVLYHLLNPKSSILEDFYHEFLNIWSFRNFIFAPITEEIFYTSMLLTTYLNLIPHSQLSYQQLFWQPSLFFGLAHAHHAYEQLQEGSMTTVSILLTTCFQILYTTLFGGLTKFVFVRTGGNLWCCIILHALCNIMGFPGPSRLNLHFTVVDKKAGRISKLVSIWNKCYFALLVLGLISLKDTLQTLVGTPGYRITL

[2] = inhibitors of intracellular T. cruzi replication, confirmation, NIH3T3 host cells, beta-gal luminescence (AID 2044); format: functional, cell-based;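 further: intracellular parasites grown in NIH/3T3 mouse fibroblasts as host cells; luminescent beta-galactosidase reporter signal from transgenic T. cruzi replicating inside host cells; inhibitors lower the luminescence signal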
[3] = biological target: T2, Hexokinase HKDC1 (Homo sapiens, UniProt Q2TB90); assay: HKDC1 hexokinase inhibitors, dose response, biochemical, W721R variant (AID 504729); format: functional
T2 sequence (Q2TB90 whole entry): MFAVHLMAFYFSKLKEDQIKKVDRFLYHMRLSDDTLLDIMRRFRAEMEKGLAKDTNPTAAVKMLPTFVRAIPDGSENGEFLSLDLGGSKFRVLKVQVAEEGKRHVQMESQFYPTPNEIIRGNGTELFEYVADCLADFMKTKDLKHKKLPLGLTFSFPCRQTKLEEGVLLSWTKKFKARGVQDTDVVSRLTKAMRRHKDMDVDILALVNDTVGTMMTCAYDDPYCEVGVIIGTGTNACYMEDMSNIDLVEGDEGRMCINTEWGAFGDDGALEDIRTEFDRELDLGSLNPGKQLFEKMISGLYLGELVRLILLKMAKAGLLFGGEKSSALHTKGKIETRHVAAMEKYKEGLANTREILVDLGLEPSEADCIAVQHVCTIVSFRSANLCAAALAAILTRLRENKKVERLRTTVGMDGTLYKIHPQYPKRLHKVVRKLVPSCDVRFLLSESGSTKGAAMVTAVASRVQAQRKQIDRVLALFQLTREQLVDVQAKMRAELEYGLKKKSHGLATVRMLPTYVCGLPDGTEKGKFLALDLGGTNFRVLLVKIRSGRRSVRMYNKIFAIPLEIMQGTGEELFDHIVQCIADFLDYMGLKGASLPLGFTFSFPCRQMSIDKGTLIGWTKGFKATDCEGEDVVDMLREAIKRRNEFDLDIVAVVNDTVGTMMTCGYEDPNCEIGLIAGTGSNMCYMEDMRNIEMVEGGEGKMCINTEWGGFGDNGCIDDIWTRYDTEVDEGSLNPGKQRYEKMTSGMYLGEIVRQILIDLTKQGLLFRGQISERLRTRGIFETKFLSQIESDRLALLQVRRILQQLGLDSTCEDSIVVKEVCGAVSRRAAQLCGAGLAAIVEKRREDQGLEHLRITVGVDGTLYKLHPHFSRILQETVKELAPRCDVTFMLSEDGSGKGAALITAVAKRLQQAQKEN

[4] = biological target: T3, DNA repair protein RAD52 homolog (Homo sapiens, UniProt P43351); format: functional, biochemical
T3 sequence (P43351 whole entry): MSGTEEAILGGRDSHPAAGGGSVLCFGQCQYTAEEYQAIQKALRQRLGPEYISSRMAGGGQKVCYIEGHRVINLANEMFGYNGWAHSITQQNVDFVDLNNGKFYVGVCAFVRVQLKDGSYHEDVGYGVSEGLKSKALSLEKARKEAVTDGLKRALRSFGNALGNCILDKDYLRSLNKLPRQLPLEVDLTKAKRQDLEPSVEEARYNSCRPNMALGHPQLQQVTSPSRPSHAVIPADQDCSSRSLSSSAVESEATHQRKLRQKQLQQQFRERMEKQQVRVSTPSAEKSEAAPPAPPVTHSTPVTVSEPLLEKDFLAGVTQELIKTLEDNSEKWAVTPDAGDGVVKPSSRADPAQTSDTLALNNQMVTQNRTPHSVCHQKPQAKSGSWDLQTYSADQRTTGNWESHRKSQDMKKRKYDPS

[5] = Intein inhibitors as potential Tuberculosis drugs, a cytotoxicity screen. [Related pubchem assays (depositor defined):AID2221, AID2223, AID434968, AID435010, AID449749, AID449750, AID489010]; format: functional
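Wherever CC50 is given: cells exposed to compound for 72 hours before luminescence readout.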

Structure (SMILES): CCCCCCCCCCOC(=O)Cn1c(COc2cccc(OC)c2)[n+](C)c2ccccc21
- AC50 [1]: 65.2 µM (active)
- EC50 [2]: 0.765 µM (active)

Structure (SMILES): CCc1ccc(S(=O)(=O)/N=C2\C=C(Nc3cccc(C(=O)O)c3)C(=O)c3ccccc32)cc1
- IC50 [3]: 4.78 µM (active)

Structure (SMILES): COc1cc2c(cc1OC)-c1c(OC)c(OC)cc3c1C(C2)N(C)CC3 (stereo not given)
- AC50 [4]: 2.14 µM (active)
- CC50 [5]: > 40 µM (active)
